Patent US10233188B2, “CDK2/4/6 inhibitors” (priority 2016, dated 2019)

Key:
[1] = target: CDK6/Cyclin D1 (Homo sapiens (Human), UniProt Q00534); test: biochemical; conditions: CDK6_Ki (nM), non-phosphorylated CDK6/Cyclin D1, 2 mM ATP, Morrison fit
[2] = target: CDK2/Cyclin E1 (Homo sapiens (Human), UniProt P24941); test: biochemical; conditions: CDK2_Ki (nM), phosphorylated CDK2/Cyclin E1, 150 μM ATP, Morrison tight-binding fit
Description: The assay was initiated with the addition of ATP, following a fifteen minutes pre-incubation of enzyme and inhibitor at room temperature in the reaction mixture. The reaction was stopped after 45 minutes at room temperature by the addition of 50 μL of 80 mM EDTA, pH 7.5.

Sequence of CDK6/Cyclin D1 (Q00534 whole entry): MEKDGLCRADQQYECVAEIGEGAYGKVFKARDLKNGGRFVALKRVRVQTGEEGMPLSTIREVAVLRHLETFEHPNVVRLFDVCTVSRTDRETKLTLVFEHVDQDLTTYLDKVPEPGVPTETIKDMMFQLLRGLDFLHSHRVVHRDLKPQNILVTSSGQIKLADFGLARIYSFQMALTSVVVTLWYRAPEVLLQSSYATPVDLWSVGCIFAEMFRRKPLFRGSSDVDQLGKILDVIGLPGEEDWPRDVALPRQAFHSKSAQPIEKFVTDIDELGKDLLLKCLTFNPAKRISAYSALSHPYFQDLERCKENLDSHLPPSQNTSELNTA
Sequence of CDK6/Cyclin D1 (P24385 whole entry partner): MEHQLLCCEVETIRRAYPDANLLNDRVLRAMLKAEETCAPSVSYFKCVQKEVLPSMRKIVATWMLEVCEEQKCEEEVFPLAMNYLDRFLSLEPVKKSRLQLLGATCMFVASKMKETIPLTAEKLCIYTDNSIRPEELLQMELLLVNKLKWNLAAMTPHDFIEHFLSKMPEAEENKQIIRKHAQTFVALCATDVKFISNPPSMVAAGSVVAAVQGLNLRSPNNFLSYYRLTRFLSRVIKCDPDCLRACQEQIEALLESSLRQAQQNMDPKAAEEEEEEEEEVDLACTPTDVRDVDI

SMILES	Ki [1] [nM]	Ki [2] [nM]
C[C@@H]1CCC[C@@H]1n1c(=O)c(CCO)cc2cnc(NC3CCN(S(C)(=O)=O)CC3)nc21 [Example 41, 6-(2-hydroxyethyl)-8-[(1S,2R)-2-methylcyclopentyl]-2-{[1-(methylsulfonyl)piperidin-4-yl]amino}pyrido[2,3-d]pyrimidin-7(8H)-one]	0.36	0.48
Cc1cc2cnc(NC3CCN(S(C)(=O)=O)CC3)nc2n([C@@H]2COC[C@@]2(C)O)c1=O (single isomer, unassigned) [Example 197, (−)-8-[(3R*,4S*)-4-hydroxy-4-methyltetrahydrofuran-3-yl]-6-methyl-2-{[1-(methylsulfonyl)piperidin-4-yl]amino}pyrido[2,3-d]pyrimidin-7(8H)-one]	4.78	4.26
Cc1cc2cnc(NC3CCN(S(=O)(=O)C4CC4)CC3)nc2n([C@@H]2CCC[C@@]2(C)O)c1=O (single isomer, unassigned) [Example 112, (−)-2-{[1-(cyclopropylsulfonyl)piperidin-4-yl]amino}-8-[(1R*,2R*)-2-hydroxy-2-methylcyclopentyl]-6-methylpyrido[2,3-d]pyrimidin-7(8H)-one]	1.24	0.12
CNS(=O)(=O)N1CCC(Nc2ncc3ccc(=O)n([C@@H]4C[C@@H](O)CC[C@H]4F)c3n2)CC1 (single isomer, unassigned) [Example 220, (−)-4-({8-[(1S*,2S*,5R*)-2-fluoro-5-hydroxycyclohexyl]-7-oxo-7,8-dihydropyrido[2,3-d]pyrimidin-2-yl}amino)-N-methylpiperidine-1-sulfonamide]	18.3	7.46
CNS(=O)(=O)N1CCC(Nc2ncc3cc(F)c(=O)n([C@H]4CCC[C@]4(C)O)c3n2)CC1 (single isomer, unassigned) [Example 125, (+)-4-({6-fluoro-8-[(1R*,2R*)-2-hydroxy-2-methylcyclopentyl]-7-oxo-7,8-dihydropyrido[2,3-d]pyrimidin-2-yl}amino)-N-methylpiperidine-1-sulfonamide]	36.6	6.21
CS(=O)(=O)N1CCC(Nc2ncc3cc(Cl)c(=O)n([C@H]4CC[C@H](O)C4)c3n2)CC1 (single isomer, unassigned) [Example 169, (+)-6-chloro-8-[(1R*,3R*)-3-hydroxycyclopentyl]-2-{[1-(methylsulfonyl)piperidin-4-yl]amino}pyrido[2,3-d]pyrimidin-7(8H)-one]	1.11	2.76
C[C@H]1[C@@H](O)CC[C@@H]1n1c(=O)ccc2cnc(NC3CCN(S(C)(=O)=O)CC3)nc21 (single isomer, unassigned) [Example 202, (+)-8-[(1R*,2S*,3R*)-3-hydroxy-2-methylcyclopentyl]-2-{[1-(methylsulfonyl)piperidin-4-yl]amino}pyrido[2,3-d]pyrimidin-7(8H)-one]	2.44	0.8
C[C@]1(O)CCC[C@@H]1n1c(=O)c(CC#N)cc2cnc(NC3CCN(S(C)(=O)=O)CC3)nc21 (single isomer, unassigned) [Example 121, (+)-(8-[(1R*,2R*)-2-hydroxy-2-methylcyclopentyl]-2-{[1-(methylsulfonyl)piperidin-4-yl]amino}-7-oxo-7,8-dihydropyrido[2,3-d]pyrimidin-6-yl)acetonitrile]	0.82	2.15
C[C@@]1(O)CCC[C@H]1n1c(=O)c(Cl)cc2cnc(NC3CCN(S(N)(=O)=O)CC3)nc21 (single isomer, unassigned) [Example 128, (−)-4-({6-chloro-8-[(1R*,2R*)-2-hydroxy-2-methylcyclopentyl]-7-oxo-7,8-dihydropyrido[2,3-d]pyrimidin-2-yl}amino)piperidine-1-sulfonamide]	0.53	0.12
CNS(=O)(=O)N1CCC(Nc2ncc3ccc(=O)n(C4CCCC4)c3n2)CC1 [Example 11, 4-[(8-cyclopentyl-7-oxo-7,8-dihydropyrido[2,3-d]pyrimidin-2-yl)amino]-N-methylpiperidine-1-sulfonamide]	2.99	0.67
C[C@@H]1[C@H](O)CC[C@H]1n1c(=O)c(Cl)cc2cnc(NC3CCN(S(C)(=O)=O)CC3)nc21 (single isomer, unassigned) [Example 203, (−)-6-chloro-8-[(1R*,2S*,3R*)-3-hydroxy-2-methylcyclopentyl]-2-{[1-(methylsulfonyl)piperidin-4-yl]amino}pyrido[2,3-d]pyrimidin-7(8H)-one]	1.53	0.51
C[C@@]1(O)CCC[C@H]1n1c(=O)c(CO)cc2cnc(NC3CCN(S(C)(=O)=O)CC3)nc21 (single isomer, unassigned) [Example 185, (−)-6-(hydroxymethyl)-8-[(1R*,2R*)-2-hydroxy-2-methylcyclopentyl]-2-{[1-(methylsulfonyl)piperidin-4-yl]amino}pyrido[2,3-d]pyrimidin-7(8H)-one]	0.38	0.43
C[C@@]1(O)CCC[C@H]1n1c(=O)ccc2cnc(NC3CCN(S(=O)(=O)c4nncs4)CC3)nc21 (single isomer, unassigned) [Example 80, (−)-8-[(1R*,2R*)-2-hydroxy-2-methylcyclopentyl]-2-{[1-(1,3,4-thiadiazol-2-ylsulfonyl)piperidin-4-yl]amino}pyrido[2,3-d]pyrimidin-7(8H)-one]	1.53	0.25
C[C@@]1(O)CCC[C@H]1n1c(=O)ccc2cnc(NC3CCN(S(=O)(=O)c4nccs4)CC3)nc21 (single isomer, unassigned) [Example 78, (−)-8-[(1R*,2R*)-2-hydroxy-2-methylcyclopentyl]-2-{[1-(1,3-thiazol-2-ylsulfonyl)piperidin-4-yl]amino}pyrido[2,3-d]pyrimidin-7(8H)-one]	1.63	0.25
CS(=O)(=O)N1CCC(Nc2ncc3cc(CC(F)F)c(=O)n([C@@H]4CC[C@@H](O)C4)c3n2)CC1 (single isomer, unassigned) [Example 172, (−)-6-(2,2-difluoroethyl)-8-[(1R*,3R*)-3-hydroxycyclopentyl]-2-{[1-(methylsulfonyl)piperidin-4-yl]amino}pyrido[2,3-d]pyrimidin-7(8H)-one]	2.08	4.38
COCc1cc2cnc(NC3CCN(S(C)(=O)=O)CC3)nc2n([C@@H]2CCC[C@@H]2C)c1=O [Example 48, 6-(methoxymethyl)-8-[(1R,2S)-2-methylcyclopentyl]-2-{[1-(methylsulfonyl)piperidin-4-yl]amino}pyrido[2,3-d]pyrimidin-7(8H)-one]	0.54	1.39
C[C@]1(O)CCC[C@@H]1n1c(=O)ccc2cnc(NC3CCN(S(=O)(=O)C4CC4)CC3)nc21 (single isomer, unassigned) [Example 75, (+)-2-{[1-(cyclopropylsulfonyl)piperidin-4-yl]amino}-8-[(1R*,2R*)-2-hydroxy-2-methylcyclopentyl]pyrido[2,3-d]pyrimidin-7(8H)-one]	4.96	3.85
Cc1cc2cnc(NC3CCN(S(=O)(=O)C4CC4)CC3)nc2n([C@H]2CCC[C@]2(C)O)c1=O (single isomer, unassigned) [Example 113, (+)-2-{[1-(cyclopropylsulfonyl)piperidin-4-yl]amino}-8-[(1R*,2R*)-2-hydroxy-2-methylcyclopentyl]-6-methylpyrido[2,3-d]pyrimidin-7(8H)-one]	4.15	1.99
C[C@@]1(O)CCC[C@H]1n1c(=O)ccc2cnc(NC3CCN(S(=O)(=O)CF)CC3)nc21 (single isomer, unassigned) [Example 58, (−)-2-({1-[(fluoromethyl)sulfonyl]piperidin-4-yl}amino)-8-[(1R*,2R*)-2-hydroxy-2-methylcyclopentyl]pyrido[2,3-d]pyrimidin-7(8H)-one]	0.49	0.27
CS(=O)(=O)N1CCC(Nc2ncc3cc(Cl)c(=O)n([C@@H]4CCC[C@@H](O)C4)c3n2)CC1 (single isomer, unassigned) [Example 34, (+)-6-chloro-8-[(1R*,3R*)-3-hydroxycyclohexyl]-2-{[1-(methylsulfonyl)piperidin-4-yl]amino}pyrido[2,3-d]pyrimidin-7(8H)-one]	0.42	1.34
CNS(=O)(=O)N1CCC(Nc2ncc3ccc(=O)n([C@H]4C[C@H](O)CC[C@@H]4F)c3n2)CC1 (single isomer, unassigned) [Example 219, (+)-4-({8-[(1S*,2S*,5R*)-2-fluoro-5-hydroxycyclohexyl]-7-oxo-7,8-dihydropyrido[2,3-d]pyrimidin-2-yl}amino)-N-methylpiperidine-1-sulfonamide]	3.9	0.78
COCc1cc2cnc(NC3CCN(S(C)(=O)=O)CC3)nc2n(C2CCCC2)c1=O [Example 142, 8-cyclopentyl-6-(methoxymethyl)-2-{[1-(methylsulfonyl)piperidin-4-yl]amino}pyrido[2,3-d]pyrimidin-7(8H)-one]	0.55	1.88
C[C@@]1(O)CCC[C@H]1n1c(=O)ccc2cnc(NC3CCN(S(=O)(=O)C4CCS(=O)(=O)C4)CC3)nc21 (single isomer, unassigned) [Example 70]	0.83	0.35
Cn1cc(S(=O)(=O)N2CCC(Nc3ncc4ccc(=O)n([C@@H]5CCC[C@@]5(C)O)c4n3)CC2)cn1 (single isomer, unassigned) [Example 82, (−)-8-[(1R*,2R*)-2-hydroxy-2-methylcyclopentyl]-2-({1-[(1-methyl-1H-pyrazol-4-yl)sulfonyl]piperidin-4-yl}amino)pyrido[2,3-d]pyrimidin-7(8H)-one]	1.21	0.1
CS(=O)(=O)CS(=O)(=O)N1CCC(Nc2ncc3ccc(=O)n(C4CCCC4)c3n2)CC1 [Example 18, 8-cyclopentyl-2-[(1-{[(methylsulfonyl)methyl]sulfonyl}piperidin-4-yl)amino]pyrido[2,3-d] pyrimidin-7(8H)-one]	2.44	1.19
